In patent US20240148820A1 (priority 2021, published 2024):
≈ marks a conversion by molar mass, not a printed value. Entries after “also recorded” stand apart in the source; their conditions may differ. Where a SMILES comes first, the peptide text is derived from it. Where no end group is shown, it is not given here.

How the values were obtained:
[1] = target: Spike of SARS-CoV-2 / ACE2-human (Severe acute respiratory syndrome coronavirus 2, UniProt P0DTC2); type: cell-based, SARS-CoV-2 / human
A(H1N1) virus [2] = tested on: A(H1N1) virus
turkey red blood cells = conditions: normalized to Triton X-100
SARS-CoV-2 [3] = tested on: SARS-CoV-2
MDCK cells = assay: Cytotoxicity assay (MTT)
A(H1N1) virus [4] = type: cell-based, A/Hong Kong/415742M/2009(H1N1)
A(H1N1) virus [5] = type: cell-based; conditions: virus pretreated 45 min, attached to MDCK cells 1 h
SARS-CoV-2 [6] = conditions: in vivo
A(H1N1) virus [7] = tested on: A(H1N1) virus; set-up: species or system BALB/c mice; conditions: in vivo
SARS-CoV = tested on: SARS-CoV; set-up: species or system BALB/c mice; conditions: in vivo
SARS-CoV-2 [8] = type: cell-based
SARS-CoV-2 [9] = type: cell-based, human
SARS-CoV-2 [10] = conditions: cited from earlier work
[11] = tested on: coronavirus or influenza virus; conditions: oral inoculation or intraperitoneal injection (refs 29, 30, 39, 41); cited from earlier work
S protein of SARS-CoV-2 = S protein of SARS-CoV-2 (Severe acute respiratory syndrome coronavirus 2, UniProt P0DTC2); type: binding

For CO/C1=C\C(C)=C\[C@@H](C)[C@@H](O)[C@@H](C)C/C(C)=C/C=C/[C@H](OC)[C@@H]([C@@H](C)[C@@H](O)[C@H](C)[C@@]2(O)C[C@@H](O)[C@H](C)[C@@H](C(C)C)O2)OC1=O [bafilomycin A1], the “spike-ACE2 mediated cell fusion” value [1] was “fusion inhibition”.

For “RGAHIKGRWKSRCHRF [P16, RGAHIKGRWKSRCHRF]”, the “IC50 against A(H1N1) virus” value (A(H1N1) virus [2]) was 3.9 µg/mL, the “IC50 against A(H3N2)” value (A(H3N2)) was 1.6 µg/mL and the “IC50 against FluB” value (FluB) was 7.1 µg/mL. The “hemolysis of turkey red blood cells” value (turkey red blood cells) was “no significant hemolysis”, the “IC50 for SARS-CoV-2 B.1.1.63” value (SARS-CoV-2 [3]) was 3.0 µg/mL and the “IC50 for SARS-CoV-2 B.1.617.2” value (SARS-CoV-2 [3]) was 3.9 µg/mL. The “IC50 for SARS-CoV-2 HKU001a” value (SARS-CoV-2 [3]) was 2.9 µg/mL, the “cytotoxicity on MDCK cells” value (MDCK cells; MDCK cells treated by 1 mg ml^−1 of P16) was “no significant cytotoxicity” and the TC50 (MDCK cells; MDCK cells, MTT, 24 h) was > 1 mg/mL.

For CC[C@H](C)[C@H](NC(=O)[C@H](C)NC(=O)CNC(=O)[C@H](CC(N)=O)NC(=O)[C@H](CO)NC(=O)[C@H](Cc1ccccc1)NC(=O)[C@H](CCCNC(=N)N)NC(=O)[C@H](Cc1c[nH]cn1)NC(=O)[C@H](CS)NC(=O)[C@H](CCC(N)=O)NC(=O)[C@H](CO)NC(=O)[C@H](CC(=O)O)NC(=O)[C@H](Cc1c[nH]c2ccccc12)NC(=O)[C@H](CCCNC(=N)N)NC(=O)CNC(=O)[C@H](CC(N)=O)NC(=O)[C@@H](NC(=O)[C@@H](N)Cc1ccccc1)[C@@H](C)CC)C(=O)N[C@@H](C)C(=O)N[C@@H](CS)C(=O)N[C@@H](C)C(=O)O [U4] (H-FINGRWDSQCHRFSNGAIACA-OH; N-terminus and C-terminus assumed), the “antiviral activity against A(H1N1) virus compared with Urumin” value (A(H1N1) virus [4]) was “more potent antiviral activity than that of Urumin” and the “IC50 against A(H1N1) virus” value (A(H1N1) virus [2]) was 6.6 µg/mL (≈ 2.8 µM).

In the case of Triton X-100, the “viral attachment to cells (RNA copies of attached virus)” value (A(H1N1) virus [5]) is reported as “significantly reduced”.

In the case of CCN(CC)CCCC(C)Nc1ccnc2cc(Cl)ccc12 (stereo not drawn) [chloroquine], the “SARS-CoV-2 replication in hamster lungs (in words)” value (SARS-CoV-2 [6]) is reported as “inhibited SARS-CoV-2 replication”, the “inhibition of SARS-CoV-2 replication in hamster lungs” value (SARS-CoV-2 [6]) is reported as 2 fold and the “A(H1N1) virus replication in mouse lungs (in words)” value (A(H1N1) virus [7]) is reported as “inhibited A(H1N1) virus replication”. For the same compound, the “A(H1N1) virus replication in mouse lungs, atomization inhalation” value (A(H1N1) virus [7]) was “could inhibit; also recorded: inhibited”, the “1-day prophylactic activity against A(H1N1) virus replication” value (A(H1N1) virus [7]; mouse) was “could not provide 1-day prophylactic activity” and the “inhibition of A(H1N1) virus replication in mice” value (A(H1N1) virus [7]; mouse) was 3.5 fold. The “inhibition of A(H1N1) virus replication, one dose before viral inoculation” value (A(H1N1) virus [7]; mouse) was 3-5 fold, the “SARS-CoV replication in mouse lungs, atomization inhalation” value (SARS-CoV) was “could inhibit; also recorded: inhibited” and the “1-day prophylactic activity against SARS-CoV replication” value (SARS-CoV; mouse) was “could not provide 1-day prophylactic activity”. The “inhibition of SARS-CoV replication, one dose before viral inoculation” value (SARS-CoV; mouse) was 3-5 fold, the “antiviral activity when cells treated before or after infection” value (SARS-CoV-2 [8]) was “significantly less antiviral activity” and the “viral replication when treated during viral infection” value (SARS-CoV-2 [8]) was “effectively inhibit viral replication; also recorded: more effectively inhibited viral replication”. For the same compound, the “SARS-CoV-2 replication in ex vivo human lung tissues” value (SARS-CoV-2 [9]) was “significantly inhibited SARS-CoV-2 replication”, the “SARS-CoV-2 replication in Calu-3 cells (reference 24)” value (SARS-CoV-2 [10]) was “cannot inhibit SARS-CoV-2 replication” and the “coronavirus or influenza virus replication in vivo after systemic administration” value [11] was “could not inhibit coronavirus or influenza virus replication in vivo”.

For IPLRGAFINGRWDSQCHRFS [U5], the “antiviral activity against A(H1N1) virus compared with Urumin” value (A(H1N1) virus [4]) was “more potent antiviral activity than that of Urumin”, the “spike-ACE2 mediated cell fusion” value [1] was “did not inhibit spike-ACE2 mediated fusion” and the “binding to S protein of SARS-CoV-2” value (S protein of SARS-CoV-2) was “bound to S protein”. For the same compound, the “effect of U5 on P16 binding to S protein” value (S protein of SARS-CoV-2) was “reduced P16 binding to S protein; also recorded: blocked P16 binding to S protein” and the “IC50 against A(H1N1) virus” value (A(H1N1) virus [2]) was 12.9 µg/mL.
